Measurements reported in patent publication US8969345B2, “Dibenzooxepin derivative” (Kyowa Hakko Kirin Co., Ltd., priority 2011, dated 2015).

Tests used:
[1] = biological target: T1, GAL4-PPAR γ chimeric nuclear receptor (human PPAR γ ligand binding domain) (Homo sapiens, UniProt P37231); experiment: PPAR γ transactivation assay by transient gene transfer (GAL4-PPAR γ chimeric receptor, luciferase reporter, HEK293EBNA cells); assay type: cell-based; details: concentration showing 50% of efficacy (maximum activity rate relative to pioglitazone = 100%), 24 hr
T1 construct: expressed in transfected cells; host or cells: HEK293EBNA cells, transient transfection with SuperFect
T1 sequence (P37231 174-475 isoform P37231-2): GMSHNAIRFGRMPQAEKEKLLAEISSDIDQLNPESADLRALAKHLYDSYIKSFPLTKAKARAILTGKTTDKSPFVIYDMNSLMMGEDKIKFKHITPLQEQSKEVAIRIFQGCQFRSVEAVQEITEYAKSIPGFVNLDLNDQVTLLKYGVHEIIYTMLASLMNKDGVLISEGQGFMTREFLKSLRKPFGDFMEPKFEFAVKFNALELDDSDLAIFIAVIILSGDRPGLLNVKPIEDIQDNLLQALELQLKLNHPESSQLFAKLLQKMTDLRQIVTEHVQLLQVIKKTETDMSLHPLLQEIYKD
Procedure: The agonist activity of the test compound to PPAR γ was determined by a transactivation assay method using a chimeric nuclear receptor of a DNA binding region of a yeast transcription factor GAL4 and a PPAR γ ligand binding region. Specifically, the PPAR γ agonist activity of the test compound was evaluated by the following method based on the method of Lehmann et al. (J Biol. Chem., 1995, vol. 270, page 12953).
HEK293EBNA cells cultured in Dulbecco's Modified Eagle medium (Invitrogen) containing 10 v/v % fetal bovine serum (Invitrogen) were used. 30 mL of the above-mentioned cells (density: 1×10^5 cells/mL) were inoculated in a […] (Iwaki Glass), and cultured overnight. Using SuperFect Transfection Reagent (QIAGEN), a plasmid expressing a GAL4-PPAR γ chimeric nuclear receptor fusing 174-475 amino acids, which are human PPAR γ ligand binding domain, and 1-147 amino acids, which are GAL4 DNA binding domain, and a reporter plasmid expressing a GAL4 responsive luciferase were transiently introduced into the cells at a proportion of 4:1. After 5 hr from transfection, the cells were detached from the culture dish, and the detached cells (density: 2×10^4 cells/mL) were inoculated by 100 μL in each well of a 96 well white plate (SUMITOMO BAKELITE), and cultured overnight. The medium was removed, the test compound diluted in various concentrations with serum-free Dulbecco's Modified Eagle medium was added by 100 μL, and the mixture was reacted under a 5% carbon dioxide gas stream (5% CO2) at 37° C. for 24 hr. On the other hand, as a positive control, 10 μmol/L of pioglitazone (100 μL) was added, and the mixture was reacted under a 5% carbon dioxide gas stream (5% CO2) at 37° C. for 24 hr. As a substrate of luciferase, 100 μL of Steady-Glo (Promega) was added to each well and the mixture was thoroughly stirred. Immediately thereafter, the chemical luminescence due to luciferase was measured using TopCount NTX (Packard).
The agonist activity (activity rate (%)) of the test compound to PPAR γ was calculated according to the following formula, as a relative activity when the agonist activity on addition of pioglitazone ([…]) was 100%.

[2] = Metabolic stability evaluation in human liver microsome; assay type: in vitro ADME; details: liver microsomes, pH 7.4; human liver microsome 0.2 mg/mL protein, test compound 1 μmol/L, β-NADPH, 37° C., 30 min; average of two samples; read-out: hCLint (converted)
Procedure: Human liver microsome (pool of 50 donors) was purchased from XenoTech. A reaction mixture containing phosphate buffer (100 mmol/L, pH 7.4), ethylenediamine tetraacetic acid (0.1 mmol/L), magnesium chloride (6 mmol/L), human liver microsome (0.2 mg/mL protein) and test compound (1 μmol/L) was prepared. The reaction mixture was preincubated at 37° C. for 5 min, β-NADPH (1 mmol/L) was added and the mixture was incubated at 37° C. for 30 min. The protein was removed with acetonitrile from the sample after the reaction and the sample was measured by LC-MS/MS. The ratio of the organic solvent in the reaction mixture was set to about 0.5%, and the reaction was performed in 2 samples.
The elimination rate constant (ke) was calculated from the linear regression of the logarithm plot of the residual ratio of the test compound and at 30 min after the reaction, and the liver inherent clearance (Cint) was calculated by the following formula.
[formula] ke: elimination rate constant (1/h) a: concentration (mg/mL) of liver microsome in the reaction mixture b: liver microsome amount per liver unit weight (32.3 mg/g liver) c: liver weight per unit body weight (25.7 g liver/kg body weight) Each test compound was tested in two samples, and the average thereof was calculated.

Structure (SMILES)	EC50 [1] [nM]	CLint scaled at 1 μmol/L [2] [mL/min/kg]
CCCc1nc2c(C(N)=O)cccc2n1Cc1ccc2c(c1)COc1cc(F)ccc1/C2=C(\C)c1noc(=O)[nH]1 [Compound 2b, (E)-1-({3-fluoro-11-[1-(5-oxo-4,5-dihydro-1,2,4-oxadiazol-3-yl)ethylidene]-6,11-dihydrodibenzo[b,e]oxepin-8-yl}methyl)-2-propyl-1H-benzo[d]imidazole-4-carboxamide]	59.5	26.7
COCc1nc2ccccn2c1Cc1ccc2c(c1)COc1cc(F)ccc1/C2=C(\C)c1noc(=O)[nH]1 [Compound 8f, (E)-3-[1-(3-fluoro8-{[2-(methoxymethyl)imidazo[1,2-a]pyridin-3-yl]methyl}dibenzo[b,e]oxepin-11(6H)-ylidene)ethyl]-1,2,4-oxadiazol-5(4H)-one]	31.7	16.7
C/C(=C1/c2ccc(Cc3c(C)nc4cc(C5CC5)ccn34)cc2COc2cc(F)ccc21)c1noc(=O)[nH]1 [Compound 14g, (E)-3-(1-{8-[(7-cyclopropyl-2-methylimidazo[1,2-a]pyridin-3-yl)methyl]-3-fluorodibenzo[b,e]oxepin-11(6H)-ylidene}ethyl)-1,2,4-oxadiazol-5(4H)-one]	130	28.3
C/C(=C1/c2ccc(Cn3c(CN(C)C)nc4ccccc43)cc2COc2cc(F)ccc21)c1noc(=O)[nH]1 [Compound 4a, (E)-3-{1-[8-({2-[(dimethylamino)methyl]-1H-benzo[d]imidazol-1-yl}methyl)-3-fluorodibenzo[b,e]oxepin-11(6H)-ylidene]ethyl}-1,2,4-oxadiazol-5(4H)-one]	33.5	31.7
CCCc1nc2ccccc2n1Cc1ccc2c(c1)COc1cc(F)ccc1/C2=C(/c1noc(=O)[nH]1)C1CC1 [Compound 4g, (E)-3-(cyclopropyl{3-fluoro-8-[(2-propyl-1H-benzo[d]imidazol-1-yl)methyl]dibenzo[b,e]oxepin-11(6H)-ylidene}methyl)-1,2,4-oxadiazol-5(4H)-one]	54.9	78.3
C#Cc1ccn2c(Cc3ccc4c(c3)COc3cc(F)ccc3/C4=C(\C)c3noc(=O)[nH]3)c(C)nc2c1 [Compound 14h, (E)-3-(1-{8-[(7-ethynyl-2-methylimidazo[1,2-a]pyridin-3-yl)methyl]-3-fluorodibenzo[b,e]oxepin-11(6H)-ylidene}ethyl)-1,2,4-oxadiazol-5(4H)-one]	304	36.7
COCc1nc2cscc2n1Cc1ccc2c(c1)COc1cc(F)ccc1/C2=C(\C)c1noc(=O)[nH]1 [Compound 13d, (E)-3-[1-(3-fluoro-8-{[2-(methoxymethyl)-1H-thieno[3,4-d]imidazol-1-yl]methyl}dibenzo[b,e]oxepin-11(6H)-ylidene)ethyl]-1,2,4-oxadiazol-5(4H)-one]	36.7	26.7
[2H]C([2H])([2H])Oc1cccc2c1nc(COC)n2Cc1ccc2c(c1)COc1cc(F)ccc1/C2=C(\C)c1noc(=O)[nH]1 [Compound 2a, (E)-3-[1-(3-fluoro-8-{[4-(methoxy-d3)-2-(methoxymethyl)-1H-benzo[d]imidazol-1-yl]methyl}dibenzo[b,e]oxepin-11(6H)-ylidene)ethyl]-1,2,4-oxadiazol-5(4H)-one]	45.6	7.33

These reach a lower EC50 [1]. Values come first.

EC50 [1] [nM]	CLint scaled at 1 μmol/L [2] [mL/min/kg]	Structure (SMILES)
4.2	36.7	C/C(=C1/c2ccc(Cc3c(C4CC4)nc4c(Cl)cccn34)cc2COc2cc(F)ccc21)c1noc(=O)[nH]1 [Compound 8a, (E)-3-(1-{8-[(8-chloro-2-cyclopropylimidazo[1,2-a]pyridin-3-yl)methyl]-3-fluorodibenzo[b,e]oxepin-11(6H)-ylidene}ethyl)-1,2,4-oxadiazol-5(4H)-one]
18.8	78.3	O=c1[nH]c(/C(=C2\c3ccc(Cc4c(C5CC5)nc5c(Cl)cccn45)cc3COc3cc(F)ccc32)C2CC2)no1 [Compound 12a, (E)-3-({8-[(8-chloro-2-cyclopropylimidazo[1,2-a]pyridin-3-yl)methyl]-3-fluorodibenzo[b,e]oxepin-11(6H)-ylidene}(cyclopropyl)methyl)-1,2,4-oxadiazol-5(4H)-one]
7.4	53.3	CCCc1nc2ccccc2n1Cc1ccc2c(c1)COc1cc(F)ccc1/C2=C(\C)c1noc(=O)[nH]1 [Compound 1a, (E)-3-(1-{3-fluoro-8-[(2-propyl-1H-benzo[d]imidazol-1-yl)methyl]dibenzo[b,e]oxepin-11(6H)-ylidene}ethyl)-1,2,4-oxadiazol-5(4H)-one]
11.7	31.7	COCc1nc2ccccc2n1Cc1ccc2c(c1)COc1cc(F)ccc1/C2=C(\C)c1noc(=O)[nH]1 [Compound 1b, (E)-3-[1-(3-fluoro-8-{[2-(methoxymethyl)-1H-benzo[d]imidazol-1-yl]methyl}dibenzo[b,e]oxepin-11(6H)-ylidene)ethyl]-1,2,4-oxadiazol-5(4H)-one]
27.7	40	C/C(=C1/c2ccc(Cc3c(C4CC4)nc4ccccn34)cc2COc2cc(F)ccc21)c1noc(=O)[nH]1 [Compound 8b, (E)-3-(1-{8-[(2-cyclopropylimidazo[1,2-a]pyridin-3-yl)methyl]-3-fluorodibenzo[b,e]oxepin-11(6H)-ylidene}ethyl)-1,2,4-oxadiazol-5(4H)-one]
6.4	102	C/C(=C1/c2ccc(Cc3c(C4CC4)nc4cc(Cl)ccn34)cc2COc2cc(F)ccc21)c1noc(=O)[nH]1 [Compound 10a, (E)-3-(1-{8-[(7-chloro-2-cyclopropylimidazo[1,2-a]pyridin-3-yl)methyl]-3-fluorodibenzo[b,e]oxepin-11(6H)-ylidene}ethyl)-1,2,4-oxadiazol-5(4H)-one]
13.9	35	C/C(=C1/c2ccc(Cc3c(C)nc4cc(C(F)(F)F)ccn34)cc2COc2cc(F)ccc21)c1noc(=O)[nH]1 [Compound 11b, (E)-3-[1-(3-fluoro-8-{[2-methyl-7-(trifluoromethyl)imidazo[1,2-a]pyridin-3-yl]methyl}dibenzo[b,e]oxepin-11(6H)-ylidene)ethyl]-1,2,4-oxadiazol-5(4H)-one]
5.3	40	COCc1nc2cc(Cl)ccn2c1Cc1ccc2c(c1)COc1cc(F)ccc1/C2=C(\C)c1noc(=O)[nH]1 [Compound 10e, (E)-3-{1-(8-{[7-chloro-2-(methoxymethyl)imidazo[1,2-a]pyridin-3-yl]methyl}-3-fluorodibenzo[b,e]oxepin-11(6H)-ylidene)ethyl}-1,2,4-oxadiazol-5(4H)-one]
11.5	33.3	CCCc1nc2ccccc2n1Cc1ccc2c(c1)COc1cc(F)c(F)cc1/C2=C(\C)c1noc(=O)[nH]1 [Compound 6a, (E)-3-(1-{2,3-difluoro-8-[(2-propyl-1H-benzo[d]imidazol-1-yl)methyl]dibenzo[b,e]oxepin-11(6H)-ylidene}ethyl)-1,2,4-oxadiazol-5(4H)-one]
8.5	21.7	C/C(=C1/c2ccc(Cn3c(C4CCC4)nc4nc(F)ccc43)cc2COc2cc(F)ccc21)c1noc(=O)[nH]1 [Compound 3i, (E)-3-(1-{8-[(2-cyclobutyl-5-fluoro-1H-imidazo[4,5-b]pyridin-1-yl)methyl]-3-fluorodibenzo[b,e]oxepin-11(6H)-ylidene}ethyl)-1,2,4-oxadiazol-5(4H)-one]
